Results: the CheMixHub viscosity set
± gives the uncertainty stated by the source.

Assay: xn = mol fraction of the nth substance listed

CC(C)CC(C)(C)C + C1CCCCC1 gave a viscosity (298.15 K, 101.33 kPa, x1 = 0.035) of 0.8617 ± 0.0083 mPa·s, a viscosity (298.15 K, 101.33 kPa, x1 = 0.0662) of 0.8283 ± 0.008 mPa·s and a viscosity (298.15 K, 101.33 kPa, x1 = 0.1012) of 0.8041 ± 0.0078 mPa·s. It also gave a viscosity (298.15 K, 101.33 kPa, x1 = 0.1376) of 0.7806 ± 0.0076 mPa·s, a viscosity (298.15 K, 101.33 kPa, x1 = 0.1754) of 0.7572 ± 0.0074 mPa·s and a viscosity (298.15 K, 101.33 kPa, x1 = 0.2147) of 0.7344 ± 0.0072 mPa·s. The viscosity (298.15 K, 101.33 kPa, x1 = 0.2557) was 0.7147 ± 0.007 mPa·s, the viscosity (298.15 K, 101.33 kPa, x1 = 0.2984) was 0.6954 ± 0.0068 mPa·s and the viscosity (298.15 K, 101.33 kPa, x1 = 0.343) was 0.6717 ± 0.0066 mPa·s. The viscosity (298.15 K, 101.33 kPa, x1 = 0.3895) was 0.6484 ± 0.0064 mPa·s, the viscosity (298.15 K, 101.33 kPa, x1 = 0.4382) was 0.6219 ± 0.0062 mPa·s and the viscosity (298.15 K, 101.33 kPa, x1 = 0.4891) was 0.5959 ± 0.006 mPa·s. For the same molecule, the viscosity (298.15 K, 101.33 kPa, x1 = 0.5423) was 0.5752 ± 0.0058 mPa·s, the viscosity (298.15 K, 101.33 kPa, x1 = 0.5982) was 0.5549 ± 0.0056 mPa·s and the viscosity (298.15 K, 101.33 kPa, x1 = 0.6569) was 0.5406 ± 0.0055 mPa·s. For the same molecule, the viscosity (298.15 K, 101.33 kPa, x1 = 0.7185) was 0.5267 ± 0.0054 mPa·s, the viscosity (298.15 K, 101.33 kPa, x1 = 0.7834) was 0.5135 ± 0.0053 mPa·s and the viscosity (298.15 K, 101.33 kPa, x1 = 0.8517) was 0.5006 ± 0.0052 mPa·s. For the same molecule, the viscosity (298.15 K, 101.33 kPa, x1 = 0.9238) was 0.4888 ± 0.0051 mPa·s, the viscosity (303.15 K, 101 kPa, x2 = 0.1052) was 0.4666 ± 0.0036 mPa·s and the viscosity (303.15 K, 101 kPa, x2 = 0.1988) was 0.4842 ± 0.0037 mPa·s. It also gave a viscosity (303.15 K, 101 kPa, x2 = 0.3026) of 0.505 ± 0.0038 mPa·s, a viscosity (303.15 K, 101 kPa, x2 = 0.4095) of 0.5328 ± 0.0039 mPa·s and a viscosity (303.15 K, 101 kPa, x2 = 0.5008) of 0.5579 ± 0.004 mPa·s. It also gave a viscosity (303.15 K, 101 kPa, x2 = 0.6005) of 0.5947 ± 0.0042 mPa·s, a viscosity (303.15 K, 101 kPa, x2 = 0.7002) of 0.6379 ± 0.0044 mPa·s and a viscosity (303.15 K, 101 kPa, x2 = 0.8014) of 0.6902 ± 0.0046 mPa·s. The viscosity (303.15 K, 101.33 kPa, x1 = 0.035) was 0.7932 ± 0.0077 mPa·s, the viscosity (303.15 K, 101.33 kPa, x1 = 0.0662) was 0.7645 ± 0.0074 mPa·s and the viscosity (303.15 K, 101.33 kPa, x1 = 0.1012) was 0.741 ± 0.0072 mPa·s. It also gave a viscosity (303.15 K, 101.33 kPa, x1 = 0.1376) of 0.718 ± 0.007 mPa·s, a viscosity (303.15 K, 101.33 kPa, x1 = 0.1754) of 0.6953 ± 0.0068 mPa·s and a viscosity (303.15 K, 101.33 kPa, x1 = 0.2147) of 0.6732 ± 0.0067 mPa·s. The viscosity (303.15 K, 101.33 kPa, x1 = 0.2557) was 0.6528 ± 0.0065 mPa·s, the viscosity (303.15 K, 101.33 kPa, x1 = 0.2984) was 0.633 ± 0.0063 mPa·s and the viscosity (303.15 K, 101.33 kPa, x1 = 0.343) was 0.6129 ± 0.0061 mPa·s. It also gave a viscosity (303.15 K, 101.33 kPa, x1 = 0.3895) of 0.5933 ± 0.006 mPa·s, a viscosity (303.15 K, 101.33 kPa, x1 = 0.4382) of 0.5768 ± 0.0058 mPa·s and a viscosity (303.15 K, 101.33 kPa, x1 = 0.4891) of 0.5607 ± 0.0057 mPa·s. The viscosity (303.15 K, 101.33 kPa, x1 = 0.5423) was 0.5454 ± 0.0055 mPa·s, the viscosity (303.15 K, 101.33 kPa, x1 = 0.5982) was 0.5306 ± 0.0054 mPa·s and the viscosity (303.15 K, 101.33 kPa, x1 = 0.6569) was 0.5132 ± 0.0053 mPa·s. For the same molecule, the viscosity (303.15 K, 101.33 kPa, x1 = 0.7185) was 0.4963 ± 0.0051 mPa·s, the viscosity (303.15 K, 101.33 kPa, x1 = 0.7834) was 0.4848 ± 0.005 mPa·s and the viscosity (303.15 K, 101.33 kPa, x1 = 0.8517) was 0.4737 ± 0.0049 mPa·s. It also gave a viscosity (303.15 K, 101.33 kPa, x1 = 0.9238) of 0.4625 ± 0.0048 mPa·s, a viscosity (308.15 K, 101.33 kPa, x1 = 0.035) of 0.7312 ± 0.0072 mPa·s and a viscosity (308.15 K, 101.33 kPa, x1 = 0.0662) of 0.7054 ± 0.0069 mPa·s. For the same molecule, the viscosity (308.15 K, 101.33 kPa, x1 = 0.1012) was 0.6844 ± 0.0067 mPa·s, the viscosity (308.15 K, 101.33 kPa, x1 = 0.1376) was 0.6639 ± 0.0066 mPa·s and the viscosity (308.15 K, 101.33 kPa, x1 = 0.1754) was 0.6438 ± 0.0064 mPa·s. The viscosity (308.15 K, 101.33 kPa, x1 = 0.2147) was 0.6242 ± 0.0062 mPa·s, the viscosity (308.15 K, 101.33 kPa, x1 = 0.2557) was 0.6066 ± 0.0061 mPa·s and the viscosity (308.15 K, 101.33 kPa, x1 = 0.2984) was 0.5895 ± 0.0059 mPa·s. For the same molecule, the viscosity (308.15 K, 101.33 kPa, x1 = 0.343) was 0.5717 ± 0.0058 mPa·s, the viscosity (308.15 K, 101.33 kPa, x1 = 0.3895) was 0.5545 ± 0.0056 mPa·s and the viscosity (308.15 K, 101.33 kPa, x1 = 0.4382) was 0.539 ± 0.0055 mPa·s. It also gave a viscosity (308.15 K, 101.33 kPa, x1 = 0.4891) of 0.524 ± 0.0054 mPa·s, a viscosity (308.15 K, 101.33 kPa, x1 = 0.5423) of 0.5098 ± 0.0052 mPa·s and a viscosity (308.15 K, 101.33 kPa, x1 = 0.5982) of 0.496 ± 0.0051 mPa·s. For the same molecule, the viscosity (308.15 K, 101.33 kPa, x1 = 0.6569) was 0.4812 ± 0.005 mPa·s, the viscosity (308.15 K, 101.33 kPa, x1 = 0.7185) was 0.4668 ± 0.0049 mPa·s and the viscosity (308.15 K, 101.33 kPa, x1 = 0.7834) was 0.457 ± 0.0048 mPa·s. For the same molecule, the viscosity (308.15 K, 101.33 kPa, x1 = 0.8517) was 0.4475 ± 0.0047 mPa·s, the viscosity (308.15 K, 101.33 kPa, x1 = 0.9238) was 0.4368 ± 0.0046 mPa·s and the viscosity (313.15 K, 101.33 kPa, x1 = 0.035) was 0.6779 ± 0.0067 mPa·s. The viscosity (313.15 K, 101.33 kPa, x1 = 0.0662) was 0.6567 ± 0.0065 mPa·s, the viscosity (313.15 K, 101.33 kPa, x1 = 0.1012) was 0.6377 ± 0.0063 mPa·s and the viscosity (313.15 K, 101.33 kPa, x1 = 0.1376) was 0.6192 ± 0.0062 mPa·s. The viscosity (313.15 K, 101.33 kPa, x1 = 0.1754) was 0.6 ± 0.006 mPa·s, the viscosity (313.15 K, 101.33 kPa, x1 = 0.2147) was 0.5813 ± 0.0059 mPa·s and the viscosity (313.15 K, 101.33 kPa, x1 = 0.2557) was 0.5646 ± 0.0057 mPa·s. It also gave a viscosity (313.15 K, 101.33 kPa, x1 = 0.2984) of 0.5483 ± 0.0056 mPa·s, a viscosity (313.15 K, 101.33 kPa, x1 = 0.343) of 0.5322 ± 0.0054 mPa·s and a viscosity (313.15 K, 101.33 kPa, x1 = 0.3895) of 0.5166 ± 0.0053 mPa·s. It also gave a viscosity (313.15 K, 101.33 kPa, x1 = 0.4382) of 0.5029 ± 0.0052 mPa·s, a viscosity (313.15 K, 101.33 kPa, x1 = 0.4891) of 0.4895 ± 0.0051 mPa·s and a viscosity (313.15 K, 101.33 kPa, x1 = 0.5423) of 0.4781 ± 0.005 mPa·s. For the same molecule, the viscosity (313.15 K, 101.33 kPa, x1 = 0.5982) was 0.4671 ± 0.0049 mPa·s, the viscosity (313.15 K, 101.33 kPa, x1 = 0.6569) was 0.4546 ± 0.0048 mPa·s and the viscosity (313.15 K, 101.33 kPa, x1 = 0.7185) was 0.4424 ± 0.0047 mPa·s. For the same molecule, the viscosity (313.15 K, 101.33 kPa, x1 = 0.7834) was 0.4315 ± 0.0046 mPa·s, the viscosity (313.15 K, 101.33 kPa, x1 = 0.8517) was 0.421 ± 0.0045 mPa·s and the viscosity (313.15 K, 101.33 kPa, x1 = 0.9238) was 0.4131 ± 0.0044 mPa·s. It also gave a viscosity (318.15 K, 101.33 kPa, x1 = 0.035) of 0.6323 ± 0.0063 mPa·s, a viscosity (318.15 K, 101.33 kPa, x1 = 0.0662) of 0.6115 ± 0.0061 mPa·s and a viscosity (318.15 K, 101.33 kPa, x1 = 0.1012) of 0.5952 ± 0.006 mPa·s. For the same molecule, the viscosity (318.15 K, 101.33 kPa, x1 = 0.1376) was 0.5793 ± 0.0058 mPa·s, the viscosity (318.15 K, 101.33 kPa, x1 = 0.1754) was 0.5628 ± 0.0057 mPa·s and the viscosity (318.15 K, 101.33 kPa, x1 = 0.2147) was 0.5467 ± 0.0056 mPa·s. The viscosity (318.15 K, 101.33 kPa, x1 = 0.2557) was 0.5318 ± 0.0054 mPa·s, the viscosity (318.15 K, 101.33 kPa, x1 = 0.2984) was 0.5172 ± 0.0053 mPa·s and the viscosity (318.15 K, 101.33 kPa, x1 = 0.343) was 0.5024 ± 0.0052 mPa·s. It also gave a viscosity (318.15 K, 101.33 kPa, x1 = 0.3895) of 0.488 ± 0.0051 mPa·s, a viscosity (318.15 K, 101.33 kPa, x1 = 0.4382) of 0.4762 ± 0.005 mPa·s and a viscosity (318.15 K, 101.33 kPa, x1 = 0.4891) of 0.4647 ± 0.0049 mPa·s. For the same molecule, the viscosity (318.15 K, 101.33 kPa, x1 = 0.5423) was 0.4527 ± 0.0048 mPa·s, the viscosity (318.15 K, 101.33 kPa, x1 = 0.5982) was 0.4411 ± 0.0047 mPa·s and the viscosity (318.15 K, 101.33 kPa, x1 = 0.6569) was 0.4305 ± 0.0046 mPa·s. It also gave a viscosity (318.15 K, 101.33 kPa, x1 = 0.7185) of 0.4203 ± 0.0045 mPa·s, a viscosity (318.15 K, 101.33 kPa, x1 = 0.7834) of 0.4106 ± 0.0044 mPa·s and a viscosity (318.15 K, 101.33 kPa, x1 = 0.8517) of 0.4013 ± 0.0043 mPa·s. It also gave a viscosity (318.15 K, 101.33 kPa, x1 = 0.9238) of 0.3929 ± 0.0042 mPa·s, a viscosity (323.15 K, 101.33 kPa, x1 = 0.035) of 0.5887 ± 0.0059 mPa·s and a viscosity (323.15 K, 101.33 kPa, x1 = 0.0662) of 0.5733 ± 0.0058 mPa·s. The viscosity (323.15 K, 101.33 kPa, x1 = 0.1012) was 0.5565 ± 0.0056 mPa·s, the viscosity (323.15 K, 101.33 kPa, x1 = 0.1376) was 0.5402 ± 0.0055 mPa·s and the viscosity (323.15 K, 101.33 kPa, x1 = 0.1754) was 0.5235 ± 0.0054 mPa·s.
